This note sets out measurements from paper PMC12238253 (Nature Communications, 2025).

The assay deals with T1, His6-LIMP-2_35-430 (Homo sapiens, UniProt Q14108).
T1 sequence (Q14108 35-430): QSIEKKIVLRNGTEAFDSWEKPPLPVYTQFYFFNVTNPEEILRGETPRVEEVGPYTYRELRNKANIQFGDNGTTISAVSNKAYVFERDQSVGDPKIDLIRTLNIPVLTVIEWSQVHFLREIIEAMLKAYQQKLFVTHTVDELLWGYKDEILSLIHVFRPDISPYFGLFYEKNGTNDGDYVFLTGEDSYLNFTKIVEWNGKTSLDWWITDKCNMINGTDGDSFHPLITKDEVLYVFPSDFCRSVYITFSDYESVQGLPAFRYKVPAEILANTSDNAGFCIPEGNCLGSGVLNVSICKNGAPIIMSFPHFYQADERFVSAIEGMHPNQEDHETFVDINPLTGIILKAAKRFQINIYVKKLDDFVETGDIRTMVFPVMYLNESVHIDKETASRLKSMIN
The assay is described as follows: microscale thermophoresis. It counts as binding.

In turn, `COc1ccc2cc1Oc1ccc(cc1)C[C@H]1c3cc(c(OC)cc3CCN1C)Oc1c(OC)c(OC)cc3c1[C@H](C2)N(C)CC3` [Tetrandrine] registered a Kd of 241 µM. With `CC(C)CCC[C@@H](C)[C@H]1CC[C@H]2[C@@H]3CC=C4C[C@@H](O)CC[C@]4(C)[C@H]3CC[C@]12C` [cholesterol] the figure was 3.7 µM.
